Key:
[1] = molecular target: human TASK-3 (Homo sapiens (Human), UniProt Q9NPC2); assay: Inhibition of recombinant TASK-3 in stably transfected CHO cells (voltage-sensitive dye, KCl depolarization); type: cell-based; details: depolarization by 40 mM potassium chloride
Method: (§1) B-2. Inhibition of Recombinant TASK-1 and TASK-3 In Vitro
(§2) The investigations on the inhibition of the recombinant TASK-1 and TASK-3 channels were conducted using stably transfected CHO cells. The compounds according to the invention were tested in this case by application of 40 mM potassium chloride in the presence of a voltage-sensitive dye according to the method described in detail in the following references [Whiteaker et al., Validation of FLIPR membrane potential dye for high-throughput screening of potassium channel modulators, J. Biomol. Screen. 6 (5), 305-312 (2001); Molecular Devices FLIPR Application Note: Measuring membrane potential using the FLIPR® membrane potential assay kit on Fluorometric Imaging Plate Reader (FLIPR®) systems, http://www.moleculardevices.com/reagents-supplies/assay-kits/ion-channels/flipr-membrane-potential-assay-kits]. The activity of the test substances was determined as their ability to inhibit a depolarization induced in the recombinant cells by 40 mM potassium chloride. The concentration which can block half of this depolarization is referred to as IC50.

[2] = molecular target: human TASK-1 (Homo sapiens (Human), UniProt O14649); assay: Inhibition of recombinant TASK-1 in stably transfected CHO cells (voltage-sensitive dye, KCl depolarization); type: cell-based; details: depolarization by 40 mM potassium chloride
Sequence of human TASK-1 (O14649 whole entry): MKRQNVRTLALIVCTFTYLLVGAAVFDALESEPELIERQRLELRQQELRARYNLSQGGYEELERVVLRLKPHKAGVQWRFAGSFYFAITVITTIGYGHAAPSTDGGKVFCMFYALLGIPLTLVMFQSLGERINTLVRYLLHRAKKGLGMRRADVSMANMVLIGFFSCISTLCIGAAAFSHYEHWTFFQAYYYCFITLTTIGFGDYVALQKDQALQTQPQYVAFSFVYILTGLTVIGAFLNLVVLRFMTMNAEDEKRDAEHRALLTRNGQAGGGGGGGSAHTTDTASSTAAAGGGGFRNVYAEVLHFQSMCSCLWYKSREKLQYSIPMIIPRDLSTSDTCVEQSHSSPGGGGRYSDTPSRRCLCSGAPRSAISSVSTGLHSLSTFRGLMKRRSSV
Method: as §1, §2

Sequence of human TASK-3 (Q9NPC2 whole entry): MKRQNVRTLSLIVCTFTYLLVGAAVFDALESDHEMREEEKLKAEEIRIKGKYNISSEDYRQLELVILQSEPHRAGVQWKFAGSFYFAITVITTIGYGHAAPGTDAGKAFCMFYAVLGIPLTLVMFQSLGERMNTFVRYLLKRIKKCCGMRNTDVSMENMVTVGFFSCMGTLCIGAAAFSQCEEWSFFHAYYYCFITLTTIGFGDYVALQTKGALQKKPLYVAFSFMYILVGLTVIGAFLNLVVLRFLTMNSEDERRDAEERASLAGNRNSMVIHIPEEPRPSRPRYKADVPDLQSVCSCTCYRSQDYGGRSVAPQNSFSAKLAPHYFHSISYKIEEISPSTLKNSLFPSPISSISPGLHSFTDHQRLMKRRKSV

SMILES: Cc1nc(C)c(C(=O)N2C3CCC2CN(Cc2c(-c4ccc(Cl)cc4)nc4ncccn24)C3)o1 [Example 50]
- IC50 [1]: 430 nM
- IC50 [2]: 3300 nM

SMILES: Cc1sc(C(=O)N2C3CCC2CN(Cc2c(-c4ccc(Cl)cc4)nc4ncccn24)C3)nc1Br [Example 52]
- IC50 [1]: 52 nM
- IC50 [2]: 1300 nM

SMILES: O=C(c1ncoc1C1CC1)N1C2CCC1CN(Cc1c(-c3ccc(Cl)cc3)nc3ncccn13)C2 [Example 53]
- IC50 [1]: 19 nM
- IC50 [2]: 620 nM

SMILES: CC(C)c1nc(C(=O)N2C3CCC2CN(Cc2c(-c4ccc(Cl)cc4)nc4ncccn24)C3)cs1 [Example 54]
- IC50 [1]: 13 nM
- IC50 [2]: 860 nM

SMILES: O=C(c1cncs1)N1C2CCC1CN(Cc1c(-c3ccc(Cl)cc3)nc3ncccn13)C2 [Example 55]
- IC50 [1]: 170 nM
- IC50 [2]: 2900 nM

SMILES: Cc1nc(C(=O)N2C3CCC2CN(Cc2c(-c4ccc(Cl)cc4)nc4ncccn24)C3)c(C)o1 [Example 56]
- IC50 [1]: 54 nM
- IC50 [2]: 5600 nM

SMILES: COc1nc(C(F)(F)F)c(C(=O)N2C3CCC2CN(Cc2c(-c4ccc(Cl)cc4)nc4ncccn24)C3)s1 [Example 57]
- IC50 [1]: 57 nM
- IC50 [2]: 6400 nM

SMILES: O=C(c1csc(C(F)(F)F)n1)N1C2CCC1CN(Cc1c(-c3ccc(Cl)cc3)nc3ncccn13)C2 [Example 58]
- IC50 [1]: 17 nM
- IC50 [2]: 1600 nM

SMILES: Cc1scnc1C(=O)N1C2CCC1CN(Cc1c(-c3ccc(Cl)cc3)nc3ncccn13)C2 [Example 59]
- IC50 [1]: 39 nM
- IC50 [2]: 3000 nM

SMILES: O=C(c1nc(C(F)(F)F)cs1)N1C2CCC1CN(Cc1c(-c3ccc(Cl)cc3)nc3ncccn13)C2 [Example 60]
- IC50 [1]: 430 nM
- IC50 [2]: 670 nM

SMILES: O=C(c1cscn1)N1C2CCC1CN(Cc1c(-c3ccc(Cl)cc3)nc3ncccn13)C2 [Example 61]
- IC50 [1]: 640 nM
- IC50 [2]: 3000 nM

SMILES: CNc1cccc(C(=O)N2C3CCC2CN(Cc2c(-c4ccc(C(C)C)cc4)nc4ncccn24)C3)n1 [Example 62]
- IC50 [1]: 70 nM
- IC50 [2]: 6900 nM

SMILES: COc1cccc(C(=O)N2C3CCC2CN(Cc2c(-c4ccc(C(C)C)cc4)nc4ncccn24)C3)n1 [Example 63]
- IC50 [1]: 15 nM
- IC50 [2]: 1700 nM

SMILES: CC(C)c1ccc(-c2nc3ncccn3c2CN2CC3CCC(C2)N3C(=O)c2ccccc2F)cc1 [Example 64]
- IC50 [1]: 8.4 nM
- IC50 [2]: 1100 nM

SMILES: COc1cccc(C(=O)N2C3COCC2CN(Cc2c(-c4ccc(C(C)C)cc4)nc4ncccn24)C3)n1 [Example 66]
- IC50 [1]: 20 nM
- IC50 [2]: 3700 nM

SMILES: COc1ccc(Cl)c(C(=O)N2C3COCC2CN(Cc2c(-c4ccc(C(C)C)cc4)nc4ncccn24)C3)n1 [Example 67]
- IC50 [1]: 17 nM
- IC50 [2]: 1200 nM

SMILES: CC(C)c1ccc(-c2nc3ncccn3c2CN2CC3COCC(C2)N3C(=O)c2ccccc2F)cc1 [Example 68]
- IC50 [1]: 87 nM
- IC50 [2]: 9400 nM

SMILES: COc1ccc(Cl)c(C(=O)N2CC3CCC2CN3Cc2c(-c3ccc(C(C)C)cc3)nc3ncccn23)n1 (centres unmarked) [Example 69]
- IC50 [1]: 22 nM
- IC50 [2]: 2800 nM

SMILES: CC(C)c1ccc(-c2nc3ncccn3c2CN2CC3CCC2CN3C(=O)c2ncoc2C2CC2)cc1 (centres unmarked) [Example 70]
- IC50 [1]: 20 nM
- IC50 [2]: 1900 nM

SMILES: COc1ccc(F)c(C(=O)N2CC3CCC2CN3Cc2c(-c3ccc(C(C)C)cc3)nc3ncccn23)n1 (centres unmarked) [Example 71]
- IC50 [1]: 110 nM
- IC50 [2]: 14000 nM

SMILES: COc1ccc(F)c(C(=O)N2CC3CCC2CN3Cc2c(-c3ccc(C(C)C)cc3)nc3ncccn23)n1 (centres unmarked) [Example 72]
- IC50 [1]: 29 nM
- IC50 [2]: 2100 nM

SMILES: COc1cccc(C(=O)N2CC3CCC2CN3Cc2c(-c3ccc(C(C)C)cc3)nc3ncccn23)n1 (centres unmarked) [Example 73]
- IC50 [1]: 81 nM
- IC50 [2]: 9100 nM

SMILES: COc1cccc(C(=O)N2CC3CCC2CN3Cc2c(-c3ccc(C(C)C)cc3)nc3ncccn23)n1 (centres unmarked) [Example 74]
- IC50 [1]: 61 nM
- IC50 [2]: 3400 nM

SMILES: CC(C)c1ccc(-c2nc3ncccn3c2CN2CC3CCC2CN3C(=O)c2cccc(OC(F)F)n2)cc1 (centres unmarked) [Example 75]
- IC50 [1]: 51 nM
- IC50 [2]: 3800 nM

SMILES: CC(C)c1ccc(-c2nc3ncccn3c2CN2CC3CCC2CN3C(=O)c2cccc(OC(F)F)n2)cc1 (centres unmarked) [Example 76]
- IC50 [1]: 56 nM
- IC50 [2]: 13000 nM

SMILES: COc1ccc(C)c(C(=O)N2CC3CCC2CN3Cc2c(-c3ccc(C(C)C)cc3)nc3ncccn23)n1 (centres unmarked) [Example 77]
- IC50 [1]: 4.9 nM
- IC50 [2]: 720 nM

SMILES: COc1ccc(C)c(C(=O)N2CC3CCC2CN3Cc2c(-c3ccc(C(C)C)cc3)nc3ncccn23)n1 (centres unmarked) [Example 78]
- IC50 [1]: 24 nM
- IC50 [2]: 3800 nM

SMILES: COc1ccc(F)c(C(=O)N2CC3CCC2CN3Cc2c(-c3ccc(Br)cc3)nc3ncccn23)n1 (centres unmarked) [Example 81]
- IC50 [1]: 21 nM
- IC50 [2]: 820 nM

SMILES: COc1ccc(F)c(C(=O)N2C3CCC2CN(Cc2c(-c4ccc(Br)cc4)nc4ncccn24)C3)n1 [Example 82]
- IC50 [1]: 37 nM
- IC50 [2]: 670 nM

SMILES: O=C(c1ccccc1F)N1C2CCC1CN(Cc1c(-c3ccc(Br)cc3)nc3ncccn13)C2 [Example 83]
- IC50 [1]: 14 nM
- IC50 [2]: 250 nM

SMILES: O=C(C1CCCC1)N1C2CCC1CN(Cc1c(-c3ccc(Br)cc3)nc3ncccn13)C2 [Example 84]
- IC50 [1]: 4.6 nM
- IC50 [2]: 93 nM

SMILES: O=C(Nc1ccc(F)cc1F)N1C2CCC1CN(Cc1c(-c3ccc(Cl)cc3)nc3ncccn13)C2 [Example 85, 3-{[2-(4-Chlorophenyl)imidazo[1,2-a]pyrimidin-3-yl]methyl}-N-(2,4-difluorophenyl)-3,8-diazabicyclo[3.2.1]octane-8-carboxamide]
- IC50 [1]: 1000 nM
- IC50 [2]: 30000 nM

SMILES: CC(C)NC(=O)N1C2CCC1CN(Cc1c(-c3ccc(Cl)cc3)nc3ncccn13)C2 [Example 86, 3-{[2-(4-chlorophenyl)imidazo[1,2-a]pyrimidin-3-yl]methyl}-N-isopropyl-3,8-diazabicyclo[3.2.1]octane-8-carboxamide]
- IC50 [1]: 430 nM
- IC50 [2]: 7700 nM

SMILES: O=C(Nc1cccc(Cl)c1)N1C2CCC1CN(Cc1c(-c3ccc(Cl)cc3)nc3ncccn13)C2 [Example 89, N-(3-chlorophenyl)-3-{[2-(4-chlorophenyl)imidazo[1,2-a]pyrimidin-3-yl]methyl}-3,8-diazabicyclo[3.2.1]octane-8-carboxamide]
- IC50 [1]: 850 nM
- IC50 [2]: 30000 nM

SMILES: O=C(Nc1c(Cl)cccc1Cl)N1C2CCC1CN(Cc1c(-c3ccc(Cl)cc3)nc3ncccn13)C2 [Example 91, 3-{[2-(4-chlorophenyl)imidazo[1,2-a]pyrimidin-3-yl]methyl}-N-(2,6-dichlorophenyl)-3,8-diazabicyclo[3.2.1]octane-8-carboxamide]
- IC50 [1]: 410 nM
- IC50 [2]: 20000 nM

SMILES: Cc1cccc(C)c1NC(=O)N1C2CCC1CN(Cc1c(-c3ccc(Cl)cc3)nc3ncccn13)C2 [Example 92, 3-{[2-(4-chlorophenyl)imidazo[1,2-a]pyrimidin-3-yl]methyl}-N-(2,6-dimethylphenyl)-3,8-diazabicyclo[3.2.1]octane-8-carboxamide]
- IC50 [1]: 270 nM
- IC50 [2]: 15000 nM

SMILES: O=C(Nc1ccccc1F)N1C2CCC1CN(Cc1c(-c3ccc(Cl)cc3)nc3ncccn13)C2 [Example 93, 3-{[2-(4-chlorophenyl)imidazo[1,2-a]pyrimidin-3-yl]methyl}-N-(2-fluorophenyl)-3,8-diazabicyclo[3.2.1]octane-8-carboxamide]
- IC50 [1]: 260 nM
- IC50 [2]: 12000 nM

SMILES: O=C(Nc1cccc(Cl)c1Cl)N1C2CCC1CN(Cc1c(-c3ccc(Cl)cc3)nc3ncccn13)C2 [Example 94, 3-{[2-(4-chlorophenyl)imidazo[1,2-a]pyrimidin-3-yl]methyl}-N-(2,3-dichlorophenyl)-3,8-diazabicyclo[3.2.1]octane-8-carboxamide]
- IC50 [1]: 160 nM
- IC50 [2]: 30000 nM

SMILES: CCc1ccccc1NC(=O)N1C2CCC1CN(Cc1c(-c3ccc(Cl)cc3)nc3ncccn13)C2 [Example 95, 3-{[2-(4-chlorophenyl)imidazo[1,2-a]pyrimidin-3-yl]methyl}-N-(2-ethylphenyl)-3,8-diazabicyclo[3.2.1]octane-8-carboxamide]
- IC50 [1]: 41 nM
- IC50 [2]: 3000 nM

SMILES: O=C(Nc1cc(C(F)(F)F)ccc1Cl)N1C2CCC1CN(Cc1c(-c3ccc(Cl)cc3)nc3ncccn13)C2 [Example 97, 3-{[2-(4-chlorophenyl)imidazo[1,2-a]pyrimidin-3-yl]methyl}-N-[2-chloro-5-(trifluoromethyl)phenyl]-3,8-diazabicyclo[3.2.1]octane-8-carboxamide]
- IC50 [1]: 450 nM
- IC50 [2]: 31000 nM

SMILES: CCc1cccc(C)c1NC(=O)N1C2CCC1CN(Cc1c(-c3ccc(Cl)cc3)nc3ncccn13)C2 [Example 98, 3-{[2-(4-chlorophenyl)imidazo[1,2-a]pyrimidin-3-yl]methyl}-N-(2-ethyl-6-methylphenyl)-3,8-diazabicyclo[3.2.1]octane-8-carboxamide]
- IC50 [1]: 160 nM
- IC50 [2]: 9000 nM

SMILES: Cc1ccc(C)c(NC(=O)N2C3CCC2CN(Cc2c(-c4ccc(Cl)cc4)nc4ncccn24)C3)c1 [Example 99, 3-{[2-(4-chlorophenyl)imidazo[1,2-a]pyrimidin-3-yl]methyl}-N-(2,5-dimethylphenyl)-3,8-diazabicyclo[3.2.1]octane-8-carboxamide]
- IC50 [1]: 750 nM
- IC50 [2]: 30000 nM

SMILES: O=C(NC1CCCCC1)N1C2CCC1CN(Cc1c(-c3ccc(Cl)cc3)nc3ncccn13)C2 [Example 100, 3-{[2-(4-Chlorophenyl)imidazo[1,2-a]pyrimidin-3-yl]methyl}-N-cyclohexyl-3,8-diazabicyclo[3.2.1]octane-8-carboxamide]
- IC50 [1]: 630 nM
- IC50 [2]: 19000 nM
